pEC50: −log10 of the molar value.
Molecular target: T1, Human M4 receptors (Homo sapiens, UniProt P08173)
T1 construct: expressed in transfected cells; host or cells: HEK293 cells with Promega GloSensor cAMP technology, stably expressing hM4
T1 sequence (P08173 1-479): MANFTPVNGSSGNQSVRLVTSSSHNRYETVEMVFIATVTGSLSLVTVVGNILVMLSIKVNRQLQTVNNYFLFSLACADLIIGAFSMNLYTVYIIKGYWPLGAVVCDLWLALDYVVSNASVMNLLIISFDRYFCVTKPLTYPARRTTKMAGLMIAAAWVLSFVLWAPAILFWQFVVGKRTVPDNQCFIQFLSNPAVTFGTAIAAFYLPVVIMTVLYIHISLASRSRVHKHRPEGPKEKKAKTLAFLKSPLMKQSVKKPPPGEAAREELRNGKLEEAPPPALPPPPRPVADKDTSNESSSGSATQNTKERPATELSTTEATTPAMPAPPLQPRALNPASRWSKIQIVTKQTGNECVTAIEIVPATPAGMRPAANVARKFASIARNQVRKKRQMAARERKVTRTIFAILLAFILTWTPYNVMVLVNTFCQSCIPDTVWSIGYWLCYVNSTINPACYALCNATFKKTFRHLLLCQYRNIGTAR
Experiment: M4 PAM cAMP assay (GloSensor)
Assay type: cell-based
Conditions: for Emax: HEK293, read-out: M4 glosensor EC50 Mean Asymptote Maximum (%); for pEC50: HEK293 GloSensor cells expressing hM4, with EC20 acetylcholine and isoproterenol, geometric mean of 2-4 determinations unless otherwise indicated
Experimental: The M4 PAM binding affinity for the compounds of the present invention was determined utilizing the following biological assay(s):
The M4 cAMP assay was designed to determine the potency and efficacy of muscarinic positive allosteric modulators (PAMs). Human M4 receptors were stably expressed in Human embryonic kidney (HEK293) cells expressed with the Promega GloSensor™ cAMP technology.
HEK293 GloSensor cells expressing hM4 cells were cultured in growth media containing DMEM with 10% FBS, 1% Penicillin/Streptomycin, 500 μg/mL G418, 200 μg/mL Hygomycin B, and 1% Glutamax. […] Plates were incubated at 37 degrees C. and 5% CO2 for use after 24 hours.
Compound Preparation for Agonist Screen:
Each compound was tested at 10 concentrations in duplicate per experiment. Compound plates are spotted with 0.2 μL/well agonist at 400 times the final assay concentration. Positive and negative controls for the compound alone agonist response was 10 μM acetylcholine (Sigma #A2661) and DMSO, respectively. EC20 of acetylcholine was also used to define PAM activities.
Promega GloSensor™ reagent (Promega #E1291) had previously been aliquotted. […] Stock solution was mixed. Culture media in cell plates was discarded, then replaced with 40 μL/well pre-warmed equilibration media, then incubated in the dark at room temperature for 2 hours. During the incubation, stimulation media containing agonist and EC20 acetylcholine was prepared. […] Compounds are now 5 times the final assay concentration. The plate was mixed using a plate agitator. At the end of the 2 hour GloSensor™ incubation, add 10 μL of the CO2-independent media containing agonist, EC20 acetylcholine and isoproterenol to the cell plate. Cell plate was then incubated for 10 minutes at room temperature, and then read using an EnVision plate reader (Perkin Elmer).
Data was exported from the EnVision plate reader. The percent effect for each well was determined using the mean values for the positive and negative controls on each plate for each read, specifically 100*(compound−negative control)/(positive control−negative control). Dose response curves were fitted to the compound percent effect data using a 4-parameter logistic fit model. Data was reported as EC50 and Emax, with the Emax as the maximum asymptote of the fitted dose response curve.

SMILES	Emax	pEC50
COc1nc2c(c(C)c1C)CN(C(=O)CC1CN(c3cccnc3)C1)C2 [Example 28, 1-(2-methoxy-3,4-dimethyl-5,7-dihydro-6H-pyrrolo[3,4-b]pyridin-6-yl)-2-[1-(pyridin-3-yl)azetidin-3-yl]ethanone]	116%	7.67
Cc1c(C(F)F)nc2c(c1C)CN(C(=O)CC1CN(c3ccnc(OC(F)F)c3)C1)C2 [Example 10, 2-{1-[2-(Difluoromethoxy)pyridin-4-yl]azetidin-3-yl}-1-[2-(difluoromethyl)-3,4-dimethyl-5,7-dihydro-6H-pyrrolo[3,4-b]pyridin-6-yl]ethanone]	99.5%	7.54
CNC(=O)c1ccc(N2CC(CC(=O)N3Cc4nc(C)cc(C)c4C3)C2)cc1 [Example 75, 4-{3-[2-(2,4-dimethyl-5,7-dihydro-6H-pyrrolo[3,4-b]pyridin-6-yl)-2-oxoethyl]azetidin-1-yl}-N-methylbenzamide]	89.2%	6.98
Cc1nc2c(c(C)c1C)CN(C(=O)CC1CN(c3ncns3)C1)C2 [Example 5, 2-[1-(1,2,4-Thiadiazol-5-yl)azetidin-3-yl]-1-(2,3,4-trimethyl-5,7-dihydro-6H-pyrrolo[3,4-b]pyridin-6-yl)ethanone]	98.2%	8.05
Cc1nc2c(c(C)c1Cl)CN(C(=O)C[C@@H]1C[C@H]1c1cncnc1)C2 (single isomer, unassigned) [Example 51, 1-(3-chloro-2,4-dimethyl-5,7-dihydro-6H-pyrrolo[3,4-b]pyridin-6-yl)-2-[trans-2-(pyrimidin-5-yl)cyclopropyl]ethanone]	102%	8.32
COCc1cc(C)c2c(n1)CN(C(=O)CC1CN(c3ccnc(C(F)F)c3)C1)C2 [Example 50, 2-{1-[2-(difluoromethyl)pyridin-4-yl]azetidin-3-yl}-1-[2-(methoxymethyl)-4-methyl-5,7-dihydro-6H-pyrrolo[3,4-b]pyridin-6-yl]ethanone]	99.2%	7.84
Cc1cc(C)c2c(n1)CN(C(=O)CC1CN(c3ccnnc3)C1)C2 [Example 30, 1-(2,4-dimethyl-5,7-dihydro-6H-pyrrolo[3,4-b]pyridin-6-yl)-2-[1-(pyridazin-4-yl)azetidin-3-yl]ethanone]	103%	7.52
Cc1nc2c(c(C)c1Cl)CN(C(=O)CC1CN(c3ccncn3)C1)C2 [Example 39, 1-(3-chloro-2,4-dimethyl-5,7-dihydro-6H-pyrrolo[3,4-b]pyridin-6-yl)-2-[1-(pyrimidin-4-yl)azetidin-3-yl]ethanone]	96.4%	> 8.86
Cc1ccc([C@@H]2C[C@H]2CC(=O)N2Cc3nc(C)cc(C)c3C2)cn1 [Example 16, 1-(2,4-Dimethyl-5,7-dihydro-6H-pyrrolo[3,4-b]pyridin-6-yl)-2-[(1S,2R)-2-(6-methylpyridin-3-yl)cyclopropyl]ethanone]		< 5.00
Cc1c(Cl)c(OC(F)F)nc2c1CN(C(=O)CC1CN(c3cncnc3)C1)C2 [Example 32, 1-[3-chloro-2-(difluoromethoxy)-4-methyl-5,7-dihydro-6H-pyrrolo[3,4-b]pyridin-6-yl]-2-[1-(pyrimidin-5-yl)azetidin-3-yl]ethanone]	109%	7.96
Cc1ccc([C@H]2C[C@@H]2CC(=O)N2Cc3nc(C(F)F)cc(C)c3C2)cn1 [Example 18, 1-[2-(difluoromethyl)-4-methyl-5,7-dihydro-6H-pyrrolo[3,4-b]pyridin-6-yl]-2-[(1R,2S)-2-(6-methylpyridin-3-yl)cyclopropyl]ethanone]	89%	7.42
COCc1nc2c(c(C)c1Cl)CN(C(=O)CC1CN(c3ccc(F)nc3)C1)C2 [Example 49, 1-[3-chloro-2-(methoxymethyl)-4-methyl-5,7-dihydro-6H-pyrrolo[3,4-b]pyridin-6-yl]-2-[1-(6-fluoropyridin-3-yl)azetidin-3-yl]ethanone]	101%	7.95
